Target: T1, Na+, K+-ATPase (Sus scrofa, UniProt P05024)
T1 construct: gene ATP1A1; purified from pig kidney outer medulla
Assay: Na+,K+-ATPase activity inhibition, enzyme purified from pig kidney (Figure S4)
Format: biochemical

Row | Compound | Na+,K+-ATPase activity inhibition, enzyme purified from pig kidney (Figure S4)
1 | CC(C)CCn1[se]c2ccccc2c1=O [N-3mb-bs, N-3-methylbutyl-benzisoselenazol-3(2H)-one] | both N-allyl-bs and N-3mb-bs showed Na^+, K^+-ATPase inhibitory activity (purified from pig kidney outer medulla)
2 | C=CCn1[se]c2ccccc2c1=O [N-allyl-bs, N-allyl-benzisoselenazol-3(2H)-one] | both N-allyl-bs and N-3mb-bs showed Na^+, K^+-ATPase inhibitory activity (purified from pig kidney outer medulla)
